Marks after values point to notes of the source that are not given here.
What was measured:
αP265Cβγδ nAChR = αP265Cβγδ nAChR (Mus musculus, UniProt P02716+P04756+P04760, P285C); assay: Rates of reaction of engineered Cys with MTSEA; format: cell-based; conditions: MTSEA with ACh (EC80-EC100)
αP272Cβγδ nAChR = αP272Cβγδ nAChR (Mus musculus, UniProt P02716+P04756+P04760, P292C); assay: Rates of reaction of engineered Cys with MTSEA; format: cell-based; conditions: MTSEA with ACh (EC80-EC100)
αG275Cβγδ nAChR = αG275Cβγδ nAChR (Mus musculus, UniProt P02716+P04756+P04760, G295C); assay: Rates of reaction of engineered Cys with MTSEA; format: cell-based; conditions: MTSEA with ACh (EC80-EC100)
αI264Cβγδ nAChR = αI264Cβγδ nAChR (Mus musculus, UniProt P02716+P04756+P04760, I284C); assay: Rates of reaction of engineered Cys with MTSEA; format: cell-based; conditions: MTSEA with ACh (EC80-EC100)
αI274Cβγδ nAChR = αI274Cβγδ nAChR (Mus musculus, UniProt P02716+P04756+P04760, I294C); assay: Rates of reaction of engineered Cys with MTSEA; format: cell-based; conditions: MTSEA with ACh (EC80-EC100)
αV271Cβγδ nAChR = αV271Cβγδ nAChR (Mus musculus, UniProt P02716+P04756+P04760, V291C); assay: Rates of reaction of engineered Cys with MTSEA; format: cell-based; conditions: MTSEA with ACh (EC80-EC100)
αS268Cβγδ nAChR = αS268Cβγδ nAChR (Mus musculus, UniProt P02716+P04756+P04760, S288C); assay: Effect of MTS reagent application on subsequent ACh induced current; format: cell-based; conditions: αS268C
αS266Cβγδ nAChR = αS266Cβγδ nAChR (Mus musculus, UniProt P02716+P04756+P04760, S286C); assay: Rates of reaction of engineered Cys with MTSEA; format: cell-based
[1] = tested on: nAChR α-subunit single Cys mutants (αβγδ); conditions: 2 min, αA270C, αL273C, αI274C, αK276C, αY277C
αE262Cβγδ nAChR = αE262Cβγδ nAChR (Mus musculus, UniProt P02716+P04756+P04760, E282C); assay: Rates of reaction of engineered Cys with MTSEA; format: cell-based; conditions: MTSEA with ACh (EC80-EC100)
αT267Cβγδ nAChR = αT267Cβγδ nAChR (Mus musculus, UniProt P02716+P04756+P04760, T287C); assay: Rates of reaction of engineered Cys with MTSEA; format: cell-based; conditions: MTSEA with ACh (EC80-EC100)
αL263Cβγδ nAChR = αL263Cβγδ nAChR (Mus musculus, UniProt P02716+P04756+P04760+P09690, L283C); assay: Rates of reaction of engineered Cys with MTSEA; format: cell-based; conditions: αL263C; MTSEA alone; component not specified, classed slow
αS269Cβγδ nAChR = αS269Cβγδ nAChR (Mus musculus, UniProt P02716+P04756+P04760, S289C); assay: Effect of MTS reagent application on subsequent ACh induced current; format: cell-based; conditions: αS269C; MTSES 5 mM, 2 min; ACh EC30-70

Sequence of αS268Cβγδ nAChR (P04756 21-457 S288C): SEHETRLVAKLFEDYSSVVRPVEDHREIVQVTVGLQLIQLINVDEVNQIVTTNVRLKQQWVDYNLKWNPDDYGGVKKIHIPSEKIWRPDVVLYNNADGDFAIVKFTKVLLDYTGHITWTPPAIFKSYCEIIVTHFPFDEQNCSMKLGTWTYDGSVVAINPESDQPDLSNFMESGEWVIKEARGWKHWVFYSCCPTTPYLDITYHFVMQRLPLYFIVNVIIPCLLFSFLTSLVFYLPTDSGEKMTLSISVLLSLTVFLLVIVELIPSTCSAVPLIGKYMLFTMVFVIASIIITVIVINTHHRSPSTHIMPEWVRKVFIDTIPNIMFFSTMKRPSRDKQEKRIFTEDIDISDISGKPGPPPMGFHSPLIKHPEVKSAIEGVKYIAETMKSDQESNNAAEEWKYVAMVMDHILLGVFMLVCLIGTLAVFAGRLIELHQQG
Sequence of αS268Cβγδ nAChR (P09690 24-501 partner): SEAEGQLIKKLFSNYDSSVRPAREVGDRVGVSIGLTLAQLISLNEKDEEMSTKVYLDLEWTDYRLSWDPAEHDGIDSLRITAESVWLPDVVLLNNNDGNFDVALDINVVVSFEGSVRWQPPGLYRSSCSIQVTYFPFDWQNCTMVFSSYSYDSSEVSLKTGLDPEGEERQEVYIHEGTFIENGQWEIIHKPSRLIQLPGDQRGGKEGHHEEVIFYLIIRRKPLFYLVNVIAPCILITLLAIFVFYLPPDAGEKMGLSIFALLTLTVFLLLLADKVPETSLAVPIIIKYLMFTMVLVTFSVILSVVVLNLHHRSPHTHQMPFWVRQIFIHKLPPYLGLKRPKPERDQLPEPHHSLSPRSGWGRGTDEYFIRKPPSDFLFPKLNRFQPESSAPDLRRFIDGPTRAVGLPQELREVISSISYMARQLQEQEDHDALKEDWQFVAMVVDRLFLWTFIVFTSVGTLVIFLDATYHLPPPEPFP
Sequence of αS268Cβγδ nAChR (P04760 23-519): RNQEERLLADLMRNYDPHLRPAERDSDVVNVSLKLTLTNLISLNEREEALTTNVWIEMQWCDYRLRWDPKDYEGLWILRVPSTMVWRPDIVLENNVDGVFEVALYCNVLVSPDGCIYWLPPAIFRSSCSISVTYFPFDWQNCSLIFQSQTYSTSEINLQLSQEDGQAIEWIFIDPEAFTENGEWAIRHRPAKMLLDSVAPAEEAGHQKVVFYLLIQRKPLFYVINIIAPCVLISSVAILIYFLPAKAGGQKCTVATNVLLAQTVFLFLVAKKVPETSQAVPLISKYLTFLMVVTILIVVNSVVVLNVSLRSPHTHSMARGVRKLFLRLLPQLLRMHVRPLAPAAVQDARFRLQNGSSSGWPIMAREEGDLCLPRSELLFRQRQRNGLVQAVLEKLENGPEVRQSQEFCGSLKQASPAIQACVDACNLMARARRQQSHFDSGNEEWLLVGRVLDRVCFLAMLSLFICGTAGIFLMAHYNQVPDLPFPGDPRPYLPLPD
Sequence of αS268Cβγδ nAChR (P02716 25-520): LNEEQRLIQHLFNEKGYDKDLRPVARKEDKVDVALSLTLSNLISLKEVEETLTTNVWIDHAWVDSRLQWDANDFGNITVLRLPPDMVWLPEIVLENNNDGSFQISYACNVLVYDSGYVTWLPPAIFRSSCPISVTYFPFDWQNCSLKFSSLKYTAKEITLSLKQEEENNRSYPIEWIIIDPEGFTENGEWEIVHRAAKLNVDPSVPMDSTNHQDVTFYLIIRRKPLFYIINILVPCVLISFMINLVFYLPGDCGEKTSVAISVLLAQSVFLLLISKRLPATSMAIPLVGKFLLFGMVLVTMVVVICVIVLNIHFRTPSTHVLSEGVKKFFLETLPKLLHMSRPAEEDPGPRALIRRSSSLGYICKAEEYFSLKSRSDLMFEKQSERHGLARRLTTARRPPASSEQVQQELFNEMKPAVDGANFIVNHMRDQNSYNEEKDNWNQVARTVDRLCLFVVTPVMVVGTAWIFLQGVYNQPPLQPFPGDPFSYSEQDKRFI
Sequence of αS266Cβγδ nAChR (P04756 21-457 S286C): as the sequence (P04756 21-457 S288C) above, with S266C, C268S counted along it
Sequence of αS266Cβγδ nAChR (P09690 24-501 partner): as the sequence (P09690 24-501 partner) above
Sequence of αS266Cβγδ nAChR (P04760 23-519): as the sequence (P04760 23-519) above
Sequence of αS266Cβγδ nAChR (P02716 25-520, stated change not applied): as the sequence (P02716 25-520) above

| SMILES | τ in the presence of ACh, second order reaction rate constant (αP265Cβγδ nAChR) | τ in the presence of ACh, second order reaction rate constant (αP272Cβγδ nAChR) | τ in the presence of ACh, second order reaction rate constant (αG275Cβγδ nAChR) | τ in the presence of ACh, second order reaction rate constant (αI264Cβγδ nAChR) | τ in the presence of ACh, second order reaction rate constant (αI274Cβγδ nAChR) | τ in the presence of ACh, second order reaction rate constant (αV271Cβγδ nAChR) | reaction of MTSEA at this position (successive MTSEA then MTSES application) (αS268Cβγδ nAChR; MTSEA 2 mM, 2 min followed by MTSES 5 mM, 2 min on the same oocyte) | τ, second order reaction rate constant (αS266Cβγδ nAChR; MTSEA applied in the absence of ACh) | τ in the presence of ACh, second order reaction rate constant (αS266Cβγδ nAChR; MTSEA with ACh (EC80-EC100)) | effect of MTSEA application on ACh induced currents ([1]; MTSEA 2 mM, absence of ACh, αS268C) | τ in the presence of ACh, second order reaction rate constant (αE262Cβγδ nAChR) | τ in the presence of ACh, second order reaction rate constant (αT267Cβγδ nAChR) | second-order rate constant (αL263Cβγδ nAChR) | % increase of subsequent ACh induced current amplitude (αS268Cβγδ nAChR; MTSES 5 mM, 2 min, ACh EC30-70) | effect of MTSES applied after MTSEA on subsequent ACh induced currents (αS268Cβγδ nAChR; compared to MTSES applied alone) | effect of MTSES application on ACh induced currents ([1]; MTSES 5 mM) | % increase of subsequent ACh induced current amplitude (αS269Cβγδ nAChR) |
| --- | --- | --- | --- | --- | --- | --- | --- | --- | --- | --- | --- | --- | --- | --- | --- | --- | --- |
| CS(=O)(=O)SCCN [MTSEA, methanethiosulfonate ethylammonium] | 3,940 ± 620*** M^-1s^-1 | 426 ± 66* M^-1s^-1 | 22.2 ± 3.3 M⁻¹ s⁻¹ | 22.8 ± 6.5 M⁻¹ s⁻¹ | 8.7 ± 2.6*** M^-1s^-1 | 398 ± 73*** M^-1s^-1 | does not react at this position | 12,200 ± 2,200 M^-1s^-1 | 6,970 ± 1,800 M^-1s^-1 | no effect | 23,000 ± 2,100** M^-1s^-1 | 5,450 ± 86*** M^-1s^-1 | < 1,000 M^-1s^-1 |  |  |  |  |
| CS(=O)(=O)SCCS(=O)(=O)[O-].[Na+] [MTSES, methanethiosulfonate ethylsulfonate] |  |  |  |  |  |  |  |  |  |  |  |  |  | 85 ± 12% | similarly increased subsequent ACh induced currents | no functional effect | 177 ± 37% |

From publication PMC2654246 (The Journal of neuroscience : the official journal of the …, 2009)
